# Where a name gives a salt, the structure may show the parent alone.
# Columns and labels:
# Type in all cases: in vivo
# [1] = tested on: photo-oxidative induced retinopathy; test: Rat photo-oxidative induced retinopathy model: retinal morphology
# Method: (§1) Neuroprotective Effects in the Rat Photo-Oxidative Induced Retinopathy Model
# (§2) Induction of Photochemical Lesion. Photochemical lesions were induced in dark adapted rats (24 hour) by exposure to (220 fc) blue light (half-amplitude bandpass=435-475 nm) for 6 hours. Animals were allowed to recover for 5 days in darkness prior to electrodiagnostic evaluation of retinal function. Rats were single housed in clear polycarbonate cages during this light exposure.
# Assessment of Retinal Morphology. Ocular tissues were obtained from control and drug or vehicle dosed rats and fixed by immersion into a mixture of 2% paraformaldehyde and 2% glutaraldehyde. Fixed eyeballs were dehydrated in an ascending ethanol series, embedded in JB-4 plastic resin, and 1 to 1.5-micron thick sections were analyzed using a quantitative computer image analysis system attached to the microscope. Retinal layer thickness (retinal pigment epithelium, RPE; outer nuclear layer thickness, ONL; inner nuclear layer thickness, INL; and length of photoreceptor inner and outer segments, IS+OS) was measured.
# (§3) Subjects and Dosing. Male Sprague Dawley rats were randomly assigned to drug and vehicle experimental groups. Control rats were housed in their home cage under normal cyclic light exposure. All rats were dosed 48, 24 and 0 hours prior to a 6-hour blue-light exposure. Dosing was as follows:
# (§4) Five rats were used as controls. Retinal protection was assessed by analyzing the ERG response and measuring changes in retinal morphology.
# 2.) Buspirone: For DNA quantitation, six rats per treatment group were dosed IP with vehicle or buspirone (0.5 and 1 mg/kg) prior to light exposure. Retinas from seven normal rats were used as controls. To evaluate changes in retinal morphology, rats were dosed (IP) with either vehicle (N=8) or buspirone (1.0 mg/kg [N=9]). Six rats were used as controls. Retinal protection was assessed by quantitating changes in retinal DNA and measuring changes in retinal morphology.
# [2] = tested on: photo-oxidative induced retinopathy; test: Rat photo-oxidative induced retinopathy model: electroretinogram (ERG)
# [3] = tested on: photo-oxidative induced retinopathy; test: as above; remark: listed apart in the source
# Method: as §1
# The retinal protective effect of these 5-HT1A agonists were evaluated in our photo-oxidative induced retinopathy paradigm.
# as §2
# Electrodiagnostic Evaluation. The electroretinogram (ERG) was recorded from anesthetized rats after a 24-hour dark-adaptation period. Rats were anesthetized by IP injection with Ketamine-HCl (75 mg/Kg) and Xylazine (6 mg/Kg). Flash ERGs recorded from a platinum-iridium wire loop electrode positioned on the cornea were elicited by viewing a ganzfeld. Electrical responses to a series of light flashes increasing in intensity were digitized to analyze temporal characteristics of the waveform and response voltage-log intensity (VlogI) relationship. Changes in the ERG a-wave are associated with photoreceptor and retinal pigment epithelium damage while damage to the inner retina is reflected in changes in the ERG b-wave.
# as §3, §4
# 3.) SR-57746A: Rats were dosed (IP) with vehicle (N=15) or SR-57746A (0.5 mg/kg [N=5] or 1 mg/kg [N=15]). Eleven rats were used as controls. The ERG was analyzed after a 5-day recovery period to assess retinal protection.
# [4] = tested on: photo-oxidative induced retinopathy; test: Rat photo-oxidative induced retinopathy model: retinal DNA quantitation
# Method: as §1, §2
# Assessment of DNA Changes. Albino rats were euthanized by CO2 inhalation and individual retinas were frozen in separate tubes. Each retina had been sonicated in 0.8 ml (2.0 M NaCl, 50 mM NaPO4, pH 7.4, 2 mM EDTA) to yield a uniform homogenate, and stored frozen. Aliquots (0.1 ml) of each sample were diluted 10-fold with 2.0 M NaCl, 50 mM NaPO4. pH 7.4, 2 mM EDTA containing 1.1 μg/ml bisbenzimidazole (Hoechst 33258). A standard curve was constructed using calf thymus DNA from 0 to 25 μg/ml in the same buffer. Triplicate 0.2 ml aliquots of each retina sample and standard were pipetted into a 96 well plate for fluorescence measurements in the Cytofluor II. […]
# 2.) Buspirone: For DNA quantitation, six rats per treatment group were dosed IP with vehicle or buspirone (0.5 and 1 mg/kg) prior to light exposure. […] Retinal protection was assessed by quantitating changes in retinal DNA and measuring changes in retinal morphology.
# [5] = tested on: light-induced functional or morphological changes; test: Light damage paradigms (comparison compound classes)
# [6] = 0.5 mg/kg SC 48, 24 and 0 h before 6-h blue light, 5-day recovery
# [7] = 1.0 mg/kg SC 48, 24 and 0 h before 6-h blue light, 5-day recovery
smiles,measurement,setting,value
"CCCN(CCC)C1CCc2cccc(O)c2C1 (stereo not shown) [8-OH-DPAT, 8-hydroxy-2-(di-n-propylamino)tetralin]",Lesions versus vehicle dosed rats,"[1]; 0.5 mg/kg SC, 3-week recovery",not significantly different than lesions measured in vehicle dosed rats
same,ONL thickness reduction,"[1]; 0.5 mg/kg SC, 3-week recovery",53%
same,Photoreceptor segment length reduction,"[1]; 0.5 mg/kg SC, 3-week recovery",60%
same,RPE thickness reduction,"[1]; 0.5 mg/kg SC, 3-week recovery",34%
same,ONL thickness compared to vehicle dosed rats,"[1]; 1.0 mg/kg SC, 3-week recovery",2.4 fold
same,Photic lesions versus vehicle dosed rats,"[1]; 1.0 mg/kg SC, 3-week recovery",significantly different from vehicle dosed rats
same,Photoreceptor segment length compared to vehicle dosed rats,"[1]; 1.0 mg/kg SC, 3-week recovery",2.9 times
same,RPE thickness compared to vehicle dosed rats,"[1]; 1.0 mg/kg SC, 3-week recovery",1.9 times
same,Maximum a- and b-wave response amplitudes versus vehicle dosed rats,[2]; [6],not different than vehicle dosed rats
same,"Maximum a- and b-wave response amplitudes, % of control amplitudes",[2]; [6],approximately 27%
same,ERG reduction,"[2]; 0.5 mg/kg SC, as restated with the morphometry",approximately 63%
same,Maximum a- and b-wave response amplitudes versus vehicle dosed rats,[2]; [7],significantly higher than responses measured in vehicle dosed rats
same,"Maximum a-wave response amplitude, % of normal",[2]; [7],approximately 53%
same,"Maximum b-wave response amplitude, % of normal",[2]; [7],~61%
same,"ERG response amplitudes, % of normal","[2]; 1.0 mg/kg SC, as restated with the morphometry",greater than 50%
"FC(F)(F)c1cccc(C2=CCN(CCc3ccc4ccccc4c3)CC2)c1 [SR-57746A, xaliproden hydrochloride]","Maximum a- and b-wave responses, % of controls","[3]; 0.5 mg/kg IP, 5-day recovery",82%
same,"Maximum a- and b-wave responses, % of normal","[3]; 1 mg/kg IP, 5-day recovery",70%
same,Protection of retinal function,"[3]; 0.5 and 1.0 mg/kg IP, light-exposed rats",Significant protection of retinal function
O=C1CC2(CCCC2)CC(=O)N1CCCCN1CCN(c2ncccn2)CC1 [buspirone],Retinal DNA levels versus vehicle,[4]; 0.1 mg/kg IP,No significant differences
same,Retinal DNA levels versus vehicle and controls,[4]; 1 mg/kg IP,"significantly higher than measured in vehicle dosed rats, but not significantly different than controls"
same,ONL thickness,"[1]; 1 mg/kg IP, 4-week recovery",28.3 μ
same,ONL thickness versus normal rats,"[1]; 1 mg/kg IP, 4-week recovery",no significant difference in ONL thickness
Fc1ccc(C(c2ccc(F)cc2)N2CCN(C/C=C/c3ccccc3)CC2)cc1 [flunarizine],Effect in preventing light-induced functional or morphological changes,[5],moderately effective
COCCOC(=O)C1=C(C)NC(C)=C(C(=O)OC(C)C)C1c1cccc([N+](=O)[O-])c1 (stereo not shown) [nimodipine],Effect in preventing light-induced functional or morphological changes,[5],no effect
Cc1c(C)c2c(c(C)c1O)CC[C@@](C)(CCC[C@H](C)CCC[C@H](C)CCCC(C)C)O2 [α-tocopherol],Effect in preventing light-induced functional or morphological changes,[5],ineffective

# Source: US7763619B2, “Compounds with 5-HT1A activity useful for treating disorders of the outer retina” (Alcon, Inc., priority 2000, dated 2010)
